Results taken from publication PMC3913652 (PLoS ONE, 2014).

Key:
[1] = Stability in pancreatic digestive enzyme mix; type: in vitro ADME; settings: 50 mM phosphate buffer pH 6.8, peptide 30 mM, 20:1 peptide to pancreatic mixture, 37°C, reverse-phase HPLC, AUC 0–2 h as % remaining vs stable control ± SEM, n = 3 (exenatide, [Leu^14]exenatide-ABP n = 2)
Procedure: Stability of peptides was also assessed in a mixture of amylase, lipase and protease (pancreatin, Cat.# P7545-25 g, Sigma-Aldrich, St. Louis, MO), which are digestive enzymes produced by pancreatic exocrine cells. Peptides (30 mM) in 50 mM phosphate buffer (pH 6.8) and citrate buffers (pH 4 & pH 5) were incubated for 2 hours in pancreatic mixture at 37°C (20∶1 ratio of peptide to pancreatic mixture) (n = 3). The enzymatic reaction was stopped with the addition of 0.2 N HCl (final concentration of peptide 10 mM) at each time point.

rat GLP-1 receptor = molecular target: T1, rat GLP-1 receptor (Rattus norvegicus, UniProt P32301); test: GLP-1 receptor functional assay (cAMP); type: cell-based; settings: 6–23 clone 6 cells, HBSS 0.1% BSA, 250 µM IBMX, 30 minutes, quadruplicates
T1 construct: 6–23 clone 6 cells endogenously expressing the rat GLP-1 receptor; endogenous in cells; host or cells: 6-23 clone 6 cells
T1 sequence (P32301 22-463): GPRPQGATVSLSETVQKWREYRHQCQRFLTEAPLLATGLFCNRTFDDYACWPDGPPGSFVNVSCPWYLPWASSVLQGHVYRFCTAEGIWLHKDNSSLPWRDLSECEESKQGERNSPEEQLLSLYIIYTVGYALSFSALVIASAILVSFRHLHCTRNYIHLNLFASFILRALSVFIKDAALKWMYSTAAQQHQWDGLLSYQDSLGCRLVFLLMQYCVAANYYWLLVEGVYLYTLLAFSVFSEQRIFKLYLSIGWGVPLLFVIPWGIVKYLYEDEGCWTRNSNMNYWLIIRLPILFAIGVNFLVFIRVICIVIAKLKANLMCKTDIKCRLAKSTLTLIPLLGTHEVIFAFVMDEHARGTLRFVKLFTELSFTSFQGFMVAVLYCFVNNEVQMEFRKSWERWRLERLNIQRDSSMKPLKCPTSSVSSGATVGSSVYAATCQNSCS
Procedure: Following 30 minutes incubation, the cAMP was measured using the cAMP Dynamic 2 assay (Cisbio US, Bedford, MA) as per the manufacturer’s instructions. cAMP was detected by a decrease in time-resolved fluorescence energy transfer using a GeniousPro plate reader (Tecan US, San Jose, CA).
Results are presented as means ± SEM, graphed and analyzed using GraphPad Prism 5®. The potency of peptides in the in vitro functional assay and in an OGTT was determined by the analysis of concentration-response curves using non-linear regression analysis.

CC[C@H](C)[C@H](NC(=O)[C@H](Cc1c[nH]cn1)NC(=O)[C@H](CC(C)C)NC(=O)[C@H](CCCCN)NC(=O)[C@H](CC(C)C)NC(=O)[C@H](C)NC(=O)[C@H](CCC(=O)O)NC(=O)[C@@H](NC(=O)CNC(=O)[C@H](CCC(=O)O)NC(=O)[C@@H](NC(=O)[C@@H](NC(=O)[C@H](CCCCN)NC(=O)[C@H](C)NC(=O)[C@H](CCCCN)NC(=O)[C@H](CC(N)=O)NC(=O)[C@@H](NC(=O)[C@H](CC(C)C)NC(=O)[C@H](CCCNC(=N)N)NC(=O)[C@H](CCCCN)NC(=O)[C@H](Cc1ccc(O)cc1)NC(=O)[C@H](Cc1ccccc1)NC(=O)[C@H](CC(=O)O)NC(=O)[C@H](CO)NC(=O)[C@@H](NC(=O)CNC(=O)[C@H](Cc1ccc(O)cc1)NC(=O)[C@H](CCCCN)NC(=O)[C@H](CC(=O)O)NC(=O)[C@H](CC(C)C)NC(=O)[C@H](CCC(=O)O)NC(=O)[C@H](CCCNC(=N)N)NC(=O)[C@H](CC(N)=O)NC(=O)[C@H](C)NC(=O)[C@H](CC(C)C)NC(=O)[C@@H](NC(=O)[C@H](CCCCN)NC(=O)[C@H](C)NC(=O)[C@H](CCC(=O)O)NC(=O)[C@H](C)NC(=O)[C@@H](N)CC(C)C)C(C)C)C(C)C)[C@@H](C)CC)[C@@H](C)O)C(C)C)C(C)C)C(=O)N[C@@H](CC(C)C)C(=O)N[C@@H](C)C(=O)N[C@@H](C)C(=O)N[C@@H](CC(C)C)C(=O)N1CCC[C@H]1C(=O)O [ABD035]
2 h Stability in Pancreatin Mix (%) pH 6.8 [1]: 10±2% | GLP-1 Receptor Functional Assay EC50 (rat GLP-1 receptor): not active
